Source: PMC12362618, “Development of the First Small-Molecule Inhibitor Targeting Oncostatin M for Treatment of Breast Cancer” (Journal of Medicinal Chemistry, 2025)
Entries after “also recorded” stand apart in the source; their conditions may differ.

Legend:
[1] = test system: OSM-induced pSTAT3 in MDA-MB-231 human breast cancer cells; assay: pSTAT3 ELISA in MDA-MB-231 cells treated with OSM ± SMI; format: cell-based; details: SMI 10 μM, OSM 10 ng/mL, 30 min
Method: 2 High-throughput virtual screening identifies three novel compounds capable of interacting with site III of OSM. […] (F) Structure of parent SMI-10. Data are presented as mean ± SD relative to + OSM treatment, analyzed by one-way ANOVA with Tukey’s posttest *p < 0.05, **p < 0.01. To test the effect of SMIs in vitro, each SMI was incubated with OSM for a period of 1 h at 37 °C, and T47D and MDA-MB-231 human breast cancer cell lines were subsequently treated with OSM (10 ng/mL) and/or SMI-10 (10 μM) analogs for 30 min and measured for pSTAT3 levels via ELISA. The results of these assays are presented graphically in Figure and, for T47D cells, in Table as a percentage of reduction from +OSM alone. For phospho-STAT3 (pSTAT3) ELISAs, T47D MDA-MB-231, and MCF-7 cells were seeded in 12- or 24-well plates at 70–75% confluency and allowed to adhere overnight, after which cells were serum-starved with serum-free RPMI-1640 for 4 h. SMIs (10 μM in DMSO or serially diluted to specified concentrations from a 100 mM stock in DMSO) and human recombinant OSM (10 ng/mL; PeproTech; #300–10T-10UG) were incubated in serum-free RPMI-1640 medium for 1 h. After incubation, the SMI-10 analogs or SMI-10B13 and OSM were added to the serum-starved cells for 30 min. Immediately afterward, the cells were lysed using 1x PathScan Sandwich ELISA Lysis Buffer (Cell Signaling Technology; #7018S), collected, and stored at −20 °C. Lysates were analyzed for pSTAT3 levels using either the PathScan Phospho-STAT3 (Tyr705) Sandwich ELISA Antibody Pair kit (Cell Signaling Technology; #7146) or Human/Mouse Phospho-STAT3 (Y705) DuoSet IC ELISA (R&D Systems; DYC4607B), according to manufacture’s protocol. pSTAT3 expression was measured with absorbance at 450 nm and quantified by comparison relative to OSM-induced pSTAT3 levels. To calculate an IC50 for SMI-10B13, a standard curve was generated as described in the DuoSet IC ELISA datasheet to determine the concentration of pSTAT3.

OSM = molecular target: T1, OSM (Homo sapiens, UniProt P13725); assay: Fluorescence quenching assay of SMI binding to OSM; details: average of three independent replicates, errors at 95% confidence level, read-out: KD (OSM-SMI dissociation constant)
T1 sequence (P13725 26-252): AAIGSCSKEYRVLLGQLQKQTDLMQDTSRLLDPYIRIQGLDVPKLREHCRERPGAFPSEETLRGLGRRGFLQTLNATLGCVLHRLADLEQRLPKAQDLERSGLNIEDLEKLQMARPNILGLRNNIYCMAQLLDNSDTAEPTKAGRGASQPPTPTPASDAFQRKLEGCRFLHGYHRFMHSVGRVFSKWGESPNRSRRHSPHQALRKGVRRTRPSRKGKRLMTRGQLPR
Method: To perform fluorescence quenching assays, 2 mL of 1 μM OSM solution in polymethylmethacrylate cuvettes was prepared by dilution of a concentrated stock solution of recombinant OSM with buffer solution (100 mM sodium chloride, 50 mM sodium phosphate, 50 mM freshly added DTT, pH = 6.6). Cuvettes were titrated with 5 μL increments of a 1 mM small molecule stock solution in DMSO, with a cuvette titrated with an equivalent volume of DMSO as a control. […] In cases where little to no significant quenching was observed, the titration was supplemented with 2.5 μL increments of a 10 mM small molecule stock solution to increase the concentration delivered. The fluorescence intensity measurements were obtained on a Cary Eclipse spectrofluorometer equipped with a Xenon arc lamp. Fluorescence intensities were measured by exciting at 280 nm (4 nm slit width) and recording the emission from 345 to 355 nm with a photomultiplier tube voltage of 700 V, unless otherwise noted. Each titration point was normalized to OSM’s native fluorescence intensity, corrected by adding the decrease in fluorescence intensity caused by dilution with DMSO, and the average value of the three replicates for each point was plotted against concentration of small molecule delivered and fit to a modified Stern–Volmer function as described by Charlier and Plapp. Binding affinity (K D) values were obtained […] from the fitting routine. All curve-fitting analysis was performed in GraphPad Prism 8.0.

[2] = test system: OSM-induced pSTAT3 in T47D human breast cancer cells; assay: pSTAT3 ELISA in T47D cells treated with OSM ± SMI; format: cell-based; details: T47D, 30 min; for Relative pSTAT3 Levels (Table 1, SMI-10A-10J): SMI 10 μM + OSM 10 ng/mL, ELISA, relative to +OSM, no-treatment blank subtracted; for Inhibition of OSM-induced pSTAT3 via ELISA: SMI 10 μM, OSM 10 ng/mL
Method: To test the effect of SMIs in vitro, each SMI was incubated with OSM for a period of 1 h at 37 °C, and T47D and MDA-MB-231 human breast cancer cell lines were subsequently treated with OSM (10 ng/mL) and/or SMI-10 (10 μM) analogs for 30 min and measured for pSTAT3 levels via ELISA. The results of these assays are presented graphically in Figure and, for T47D cells, in Table as a percentage of reduction from +OSM alone. For phospho-STAT3 (pSTAT3) ELISAs, T47D MDA-MB-231, and MCF-7 cells were seeded in 12- or 24-well plates at 70–75% confluency and allowed to adhere overnight, after which cells were serum-starved with serum-free RPMI-1640 for 4 h. SMIs (10 μM in DMSO or serially diluted to specified concentrations from a 100 mM stock in DMSO) and human recombinant OSM (10 ng/mL; PeproTech; #300–10T-10UG) were incubated in serum-free RPMI-1640 medium for 1 h. After incubation, the SMI-10 analogs or SMI-10B13 and OSM were added to the serum-starved cells for 30 min. Immediately afterward, the cells were lysed using 1x PathScan Sandwich ELISA Lysis Buffer (Cell Signaling Technology; #7018S), collected, and stored at −20 °C. Lysates were analyzed for pSTAT3 levels using either the PathScan Phospho-STAT3 (Tyr705) Sandwich ELISA Antibody Pair kit (Cell Signaling Technology; #7146) or Human/Mouse Phospho-STAT3 (Y705) DuoSet IC ELISA (R&D Systems; DYC4607B), according to manufacture’s protocol. pSTAT3 expression was measured with absorbance at 450 nm and quantified by comparison relative to OSM-induced pSTAT3 levels. To calculate an IC50 for SMI-10B13, a standard curve was generated as described in the DuoSet IC ELISA datasheet to determine the concentration of pSTAT3.

[3] = test system: OSM-mediated signaling (pSTAT3, pAKT, pJNK, pERK) in T47D cells; assay: Immunoblot of OSM-mediated signaling in T47D cells; format: cell-based, human; details: SMI 10 μM, OSM 10 ng/mL, 30 min
Method: For immunoblot analysis, T47D breast cancer cells were treated and collected in the same manner as described above for the ELISA preparation. After lysate collection, samples were run on a 10% SDS-PAGE gel and transferred to a nitrocellulose membrane via semidry transfer. Blots were rinsed with DI H2O and allowed to completely dry at room temperature before blocking with LiCor Intercept PBS Blocking Buffer (LiCor, Lincoln, NE; Cat# 927-90001) for 1 h. After blocking, primary antibodies (1:1000) suspended in blocking buffer supplemented with 0.1% Tween were added, shaken at room temperature for 1 h, and stored at 4 °C overnight. Membranes were then washed 6 times for 5 minutes each with 1X PBS supplemented with 0.5% Tween while shaking at room temperature, and secondary antibodies (1:15,000) were applied and incubated for 1 h. Afterward, membranes were washed as previously described above and imaged at 700 nm using the LiCor Odyssey CLx Imaging System. Quantification of immunoblots was performed using the LiCor Image Studio software, normalizing to β-Actin, and calculating relative fold change compared to nontreated samples. Antibodies used included phospho-STAT3 (Y705) (Cell Signaling Technology, Danvers, MA; cat. no. 9145), phospho-AKT (S473) (Cell Signaling Technology, Danvers, MA; cat. no. 4060), phospho-JNK ([…]/[…]) (Cell Signaling Technology, Danvers, MA; cat. no. 4668), phospho-ERK (T202/Y204) (Cell Signaling Technology, Danvers, MA; cat. no. 9101), β-Actin (Cell Signaling Technology; cat. no. 3700), and donkey antirabbit IRDye 800CW (LiCor, Lincoln, NE; Cat# 925-32213).

[4] = test system: T47D and MCF-7 human breast cancer cells; assay: MTS cell viability assay; format: cell-based
Method: Cell viability was assessed using the CellTiter 96 AQueous One Solution Cell Proliferation Assay (Promega, cat. no. G3580), following the manufacturer’s instructions. Briefly, T47D and MCF-7 human breast cancer cells were seeded in 96-well plates at a density of 10,000 cells/well in 100 μL of complete growth medium and allowed to adhere overnight. Cells were then treated with a serial dilution (100 μM to 0.1 nM) of SMI-10B, SMI-10B13, Temozolomide (positive control), or vehicle (DMSO) for 24 h. Following treatment, 20 μL of MTS reagent was added directly to each well, and plates were incubated at 37 °C in a humidified incubator with 5% CO2 and imaged after 1 h of incubation. Absorbance was measured at 490 nm by using a microplate reader. Cell viability was expressed as a percentage relative to the vehicle-treated controls, and experiments were performed in triplicate.

Row | Compound | Kd (OSM) [µM] | Inhibition of OSM-induced pSTAT3 via ELISA [1] | Relative pSTAT3 Levels (Table 1, SMI-10A-10J) [2] [%] | Inhibition of OSM-induced pSTAT3 via ELISA [2] | Inhibition of OSM-mediated signaling cascades by immunoblot (words) [3] | Cytotoxicity / cell viability via MTS assay [4]
1 | c1ccc(CNCc2cc(-c3ccc4c(c3)OCO4)c(-c3ccc4c(c3)OCO4)o2)cc1 [SMI-10F, N-Benzyl-1-(4,5-bis(benzo[d][1,3]dioxol-5-yl)furan-2-yl)methanamine] | 16.8 ± 4.1 | capable of inhibiting OSM-induced pSTAT3 | 10.1 | capable of inhibiting OSM-induced pSTAT3 | capable of inhibiting multiple cascades; also recorded: significant reductions, near nontreated levels | –
2 | C(=N\Nc1ccccc1)/c1cc(-c2ccc3c(c2)OCO3)c(-c2ccc3c(c2)OCO3)o1 [SMI-10E, (E)-1-((4,5-Bis(benzo[d][1,3]dioxol-5-yl)furan-2-yl)methylene)-2-phenylhydrazine] | 21.2 ± 2.7 | capable of inhibiting OSM-induced pSTAT3 | 10.2 | capable of inhibiting OSM-induced pSTAT3 | capable of inhibiting multiple cascades; also recorded: significant reductions, near nontreated levels | –
3 | O=[N+]([O-])c1c(/C=N/Nc2ccccc2)oc(-c2ccc3c(c2)OCO3)c1-c1ccc2c(c1)OCO2 [SMI-10] | – | effective inhibitors of OSM | – | – | – | –
4 | Cn1nnc2c(C(N)=O)ncn2c1=O [Temozolomide, reference compound] | – | – | – | – | – | moderate toxicity as concentration increases

The remaining compounds from weak to strong by Kd (OSM), led by results:

Row | Kd (OSM) [µM] | Compound | Inhibition of OSM-induced pSTAT3 via ELISA [1] | Relative pSTAT3 Levels (Table 1, SMI-10A-10J) [2] [%] | Inhibition of OSM-induced pSTAT3 via ELISA [2] | Inhibition of OSM-mediated signaling cascades by immunoblot (words) [3] | Cytotoxicity / cell viability via MTS assay [4]
5 | 32.5 ± 3.4 | O=C(/C=C/c1cc(-c2ccc3c(c2)OCO3)c(-c2ccc3c(c2)OCO3)o1)c1ccccc1 [SMI-10C] | capable of inhibiting OSM-induced pSTAT3 | 11.9 | capable of inhibiting OSM-induced pSTAT3 | capable of inhibiting multiple cascades; also recorded: significant reductions, near nontreated levels | –
6 | 21.9 ± 3.5 | O=C(/C=C/c1ccccc1)c1cc(-c2ccc3c(c2)OCO3)c(-c2ccc3c(c2)OCO3)o1 [SMI-10G, (E)-1-(4,5-Bis(benzo[d][1,3]dioxol-5-yl)furan-2-yl)-3-phenylprop-2-en-1-one] | capable of inhibiting OSM-induced pSTAT3 | 8.8 | capable of inhibiting OSM-induced pSTAT3 | capable of inhibiting multiple cascades; also recorded: significant reductions, near nontreated levels | –
7 | 20.9 ± 2.4 | CCOC(=O)/C=C/c1cc(-c2ccc3c(c2)OCO3)c(-c2ccc3c(c2)OCO3)o1 [SMI-10D, Ethyl (E)-3-(4,5-Bis(benzo[d][1,3]dioxol-5-yl)furan-2-yl)acrylate] | capable of inhibiting OSM-induced pSTAT3 | 9.0 | capable of inhibiting OSM-induced pSTAT3 | capable of inhibiting multiple cascades; also recorded: significant reductions, near nontreated levels | –
